Test results published in PMC7856035 (Neuropharmacology, 2020).

Legend:
5-HT4 receptor [1] = molecular target: T1, 5-HT4 receptor (Rattus norvegicus, UniProt Q62758); test: block of […] 5-HT-induced PKA-RII phosphorylation in rat DRG neurons; format: cell-based
5-HT4 receptor [2] = molecular target: T1, 5-HT4 receptor; test: agonist-induced PKA-RII phosphorylation in rat DRG neurons, reduced by GR113808; format: cell-based

T1 sequence (Q62758 whole entry): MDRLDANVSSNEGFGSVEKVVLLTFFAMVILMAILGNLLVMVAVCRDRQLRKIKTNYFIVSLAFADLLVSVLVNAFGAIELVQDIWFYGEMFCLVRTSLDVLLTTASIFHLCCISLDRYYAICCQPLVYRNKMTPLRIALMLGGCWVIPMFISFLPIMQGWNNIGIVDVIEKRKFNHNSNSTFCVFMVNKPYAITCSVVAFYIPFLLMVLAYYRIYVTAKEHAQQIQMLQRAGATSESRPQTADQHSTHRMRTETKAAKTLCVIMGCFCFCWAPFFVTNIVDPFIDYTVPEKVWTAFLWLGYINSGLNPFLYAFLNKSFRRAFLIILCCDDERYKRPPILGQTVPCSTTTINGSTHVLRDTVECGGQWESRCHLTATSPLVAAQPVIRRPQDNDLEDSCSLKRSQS

Molecule Cn1cc(C(=O)OCC2CCN(CCNS(C)(=O)=O)CC2)c2ccccc21 [GR, GR113808] has an IC50 (5-HT4 receptor [1]) of 5.55 nM.

Work on COCCCN1CCC(NC(=O)c2cc(Cl)c(N)c3c2OCC3)CC1 [Ppr, prucalopride] yielded an EC50 (5-HT4 receptor [2]) of 10.2 nM.
